According to patent publication US7009045B2 (priority 2000, dated 2006):

How the values were obtained:
Assay type in all cases: cell-based
[1] = system: Candida famata regulatory mutants able to overproduce riboflavin; test: Sensitivity to copper ions, solid Burkholder medium (Table 12); set-up: key: +++: strong growth; ++: weak growth; —: absence of growth
Protocol: (§1) The sensitivity of the regulatory mutants of the yeast C. famata which overproduce riboflavin in iron rich medium probably due to defects in genes regulating repression (repression mutants), to different ions of heavy metals was studied. For this, the analyzed strains were streaked on the YPD plates and then were replica-plated on Burkholder synthetic medium containing leucine (40 μg/ml). The C.famata mutants L20105-40-1-11, L20105-40-1-17, L20105-3-2-1, L20105-3-2-8 and L20105-3-2-12 (all contained leu2 marker) accumulated 80–100 μg riboflavin/ml. The mutants #75, 4-48, 2-5 produced much higher amounts of riboflavin (200–250 μg/ml) but were prototrophs for leucine synthesis. Strain #75 was characterized by retarded growth comparing with other mutants. The strains VKM Y-9 (wild type) and L20105 (leu2) were used as the control strains.
Mutants overproducing lower amounts of riboflavin appeared to be more sensitive to CuSO4 (0.15 mM) than that of the strains producing higher amounts of riboflavin (inhibitory concentration 0.5 mM) (Table 12).

[2] = system: Candida famata regulatory mutants unable to overproduce riboflavin; test: Sensitivity to K2Cr2O7, Burkholder medium (Table 10)
Excerpt: In the next experiments, the influence of cobalt and chromium ions on the growth and riboflavin synthesis of regulatory mutants having defects in derepression (derepression mutants) was studied.

[3] = system: Pichia guilliermondii wild type and regulatory mutants (rib81); test: Sensitivity after electroporation to K2Cr2O7, Burkholder medium with 0.3 M sucrose (Table 22); set-up: key: +++: strong growth; ++: weak growth; —: absence of growth
[4] = system: Candida famata regulatory mutants able to overproduce riboflavin; test: Sensitivity to K2Cr2O7, solid Burkholder medium with 0.5% glycerol (Table 14); set-up: key: +++: strong growth; ++: weak growth; +: very weak growth; —: absence of growth
Protocol: as §1

O=S(=O)([O-])[O-].[Cu+2] [CuSO4]
growth ([1]; #2-5, Cu^+2 0.05 mM): +++
growth ([1]; #2-5, Cu^+2 0.1 mM): +++
growth ([1]; #2-5, Cu^+2 0.15 mM): +++
growth ([1]; #2-5, Cu^+2 0.2 mM): +++
growth ([1]; #2-5, Cu^+2 0.25 mM): +++
growth ([1]; #2-5, Cu^+2 0.3 mM): ++
growth ([1]; #2-5, Cu^+2 0.35 mM): ++
growth ([1]; #2-5, Cu^+2 0.5 mM): —
growth ([1]; #2-5, Cu^+2 0.55 mM): —
growth ([1]; #2-5, Cu^+2 0.6 mM): —
growth ([1]; #2-5, Cu^+2 0.65 mM): —
growth ([1]; #2-5, Cu^+2 0.7 mM): —
growth ([1]; #2-5, Cu^+2 0.75 mM): —
growth ([1]; #2-5, Cu^+2 4 mM): ++
growth ([1]; #2-5, Cu^+2 8 mM): —
growth ([1]; #4-48, Cu^+2 0.05 mM): +++
growth ([1]; #4-48, Cu^+2 0.1 mM): +++
growth ([1]; #4-48, Cu^+2 0.15 mM): +++
growth ([1]; #4-48, Cu^+2 0.2 mM): +++
growth ([1]; #4-48, Cu^+2 0.25 mM): +++
growth ([1]; #4-48, Cu^+2 0.3 mM): ++
growth ([1]; #4-48, Cu^+2 0.35 mM): ++
growth ([1]; #4-48, Cu^+2 0.5 mM): —
growth ([1]; #4-48, Cu^+2 0.55 mM): —
growth ([1]; #4-48, Cu^+2 0.6 mM): —
growth ([1]; #4-48, Cu^+2 0.65 mM): —
growth ([1]; #4-48, Cu^+2 0.7 mM): —
growth ([1]; #4-48, Cu^+2 0.75 mM): —
growth ([1]; #4-48, Cu^+2 4 mM): ++
growth ([1]; #4-48, Cu^+2 8 mM): —
growth ([1]; #75, Cu^+2 0.05 mM): +++
growth ([1]; #75, Cu^+2 0.1 mM): +++
growth ([1]; #75, Cu^+2 0.15 mM): +++
growth ([1]; #75, Cu^+2 0.2 mM): +++
growth ([1]; #75, Cu^+2 0.25 mM): +++
growth ([1]; #75, Cu^+2 0.3 mM): ++
growth ([1]; #75, Cu^+2 0.35 mM): ++
growth ([1]; #75, Cu^+2 0.5 mM): —
growth ([1]; #75, Cu^+2 0.55 mM): —
growth ([1]; #75, Cu^+2 0.6 mM): —
growth ([1]; #75, Cu^+2 0.65 mM): —
growth ([1]; #75, Cu^+2 0.7 mM): —
growth ([1]; #75, Cu^+2 0.75 mM): —
growth ([1]; #75, Cu^+2 4 mM): ++
growth ([1]; #75, Cu^+2 8 mM): —
growth ([1]; L20105 (leu2), Cu^+2 0.45 mM): ++
growth ([1]; L20105 (leu2), Cu^+2 0.5 mM): ++
growth ([1]; L20105 (leu2), Cu^+2 0.55 mM): ++
growth ([1]; L20105-3-2-4, Cu^+2 0.15 mM): —
growth ([1]; L20105-3-2-4, Cu^+2 0.2 mM): —
growth ([1]; L20105-3-2-4, Cu^+2 0.25 mM): —
growth ([1]; L20105-3-2-4, Cu^+2 0.35 mM): —
growth ([1]; L20105-3-2-4, Cu^+2 0.45 mM): —
growth ([1]; L20105-3-2-4, Cu^+2 0.5 mM): —
growth ([1]; L20105-3-2-4, Cu^+2 0.55 mM): —
growth ([1]; L20105-3-2-4, Cu^+2 0.6 mM): —
growth ([1]; L20105-3-2-4, Cu^+2 0.65 mM): —
growth ([1]; L20105-3-2-4, Cu^+2 0.7 mM): —
growth ([1]; L20105-3-2-4, Cu^+2 0.75 mM): —
growth ([1]; L20105-3-2-4, Cu^+2 4 mM): —
growth ([1]; L20105-3-2-8, Cu^+2 0.05 mM): ++
growth ([1]; L20105-3-2-8, Cu^+2 0.15 mM): —
growth ([1]; L20105-3-2-8, Cu^+2 0.2 mM): —
growth ([1]; L20105-3-2-8, Cu^+2 0.25 mM): —
growth ([1]; L20105-3-2-8, Cu^+2 0.3 mM): —
growth ([1]; L20105-3-2-8, Cu^+2 0.35 mM): —
growth ([1]; L20105-3-2-8, Cu^+2 0.45 mM): —
growth ([1]; L20105-3-2-8, Cu^+2 0.5 mM): —
growth ([1]; L20105-3-2-8, Cu^+2 0.55 mM): —
growth ([1]; L20105-3-2-8, Cu^+2 0.6 mM): —
growth ([1]; L20105-3-2-8, Cu^+2 0.65 mM): —
growth ([1]; L20105-3-2-8, Cu^+2 0.7 mM): —
growth ([1]; L20105-3-2-8, Cu^+2 0.75 mM): —
growth ([1]; L20105-3-2-8, Cu^+2 4 mM): —
growth ([1]; L20105-3-2-8, Cu^+2 8 mM): —
growth ([1]; L20105-3-2-12, Cu^+2 0.05 mM): ++
growth ([1]; L20105-3-2-12, Cu^+2 0.15 mM): —
growth ([1]; L20105-3-2-12, Cu^+2 0.2 mM): —
growth ([1]; L20105-3-2-12, Cu^+2 0.25 mM): —
growth ([1]; L20105-3-2-12, Cu^+2 0.3 mM): —
growth ([1]; L20105-3-2-12, Cu^+2 0.35 mM): —
growth ([1]; L20105-3-2-12, Cu^+2 0.45 mM): —
growth ([1]; L20105-3-2-12, Cu^+2 0.5 mM): —
growth ([1]; L20105-3-2-12, Cu^+2 0.55 mM): —
growth ([1]; L20105-3-2-12, Cu^+2 0.6 mM): —
growth ([1]; L20105-3-2-12, Cu^+2 0.65 mM): —
growth ([1]; L20105-3-2-12, Cu^+2 0.7 mM): —
growth ([1]; L20105-3-2-12, Cu^+2 0.75 mM): —
growth ([1]; L20105-3-2-12, Cu^+2 4 mM): —
growth ([1]; L20105-3-2-12, Cu^+2 8 mM): —

[K+].[K+].[O]=[Cr](=[O])([O-])[O][Cr](=[O])(=[O])[O-] [K2Cr2O7]
growth of wild-type strains VKM Y-9 and L20105 (leu2) ([2]; Cr^+6 0.15 mM): grow at this concentration quite satisfactory
concentration toxic for the derepression mutants ([2]; Cr^+6 ions as K2Cr2O7): 0.15 mM
growth ([3]; #9-20 (leu2), K2Cr2O7 100 μM): +++
growth ([3]; #9-20 (leu2), K2Cr2O7 150 μM): +++
growth ([3]; #9-20 (leu2), K2Cr2O7 200 μM): +++
growth ([3]; #9-20 (leu2), K2Cr2O7 250 μM): +++
growth ([3]; #9-20 (leu2), K2Cr2O7 300 μM): +++
growth ([3]; #9-20 (leu2), K2Cr2O7 350 μM): +++
growth ([3]; #9-20 (leu2), K2Cr2O7 450 μM): —
growth ([3]; #9-20 (leu2), K2Cr2O7 500 μM): —
growth ([3]; #9-20 (leu2), K2Cr2O7 550 μM): —
growth ([3]; #9-20 (leu2), K2Cr2O7 600 μM): —
growth ([3]; ATCC9058, K2Cr2O7 100 μM): +++
growth ([3]; ATCC9058, K2Cr2O7 150 μM): +++
growth ([3]; ATCC9058, K2Cr2O7 200 μM): +++
growth ([3]; ATCC9058, K2Cr2O7 250 μM): +++
growth ([3]; ATCC9058, K2Cr2O7 300 μM): +++
growth ([3]; ATCC9058, K2Cr2O7 350 μM): +++
growth ([3]; ATCC9058, K2Cr2O7 450 μM): —
growth ([3]; ATCC9058, K2Cr2O7 500 μM): —
growth ([3]; ATCC9058, K2Cr2O7 550 μM): —
growth ([3]; ATCC9058, K2Cr2O7 600 μM): —
growth ([4]; #2-5, K2Cr2O7 65 μM): +
growth ([4]; #2-5, K2Cr2O7 75 μM): +
growth ([4]; L20105-3-2-4, K2Cr2O7 30 μM): +
growth ([4]; L20105-3-2-4, K2Cr2O7 40 μM): +
growth ([4]; L20105-3-2-8, K2Cr2O7 30 μM): +
growth ([4]; L20105-3-2-8, K2Cr2O7 40 μM): +
growth ([4]; L20105-3-2-12, K2Cr2O7 30 μM): +
growth ([4]; L20105-3-2-12, K2Cr2O7 40 μM): +
